The source of these data is patent US7667052B2 (Eisai R&D Management Co., Ltd., priority 2003, dated 2010).

The first assay has as its system transcription from VEGF promoter. Description: VEGF transcription-suppressing activity, VEGF-PLAP reporter in U251/1-8 cell. The following applies: Homo sapiens, U-251, 18 h, read-out: IC50 values of VEGF transcription-suppressing activity (range given). The format is cell-based. An excerpt:
In order to prepare reporter system reflecting transcription from VEGF promoter, VEGF promoter sequence was cloned, and inserted in secretory alkali phosphatase (PLAP) vector to construct reporter vector.
In order to obtain the promoter region of human VEGF, VEGF genome was cloned from phage library. PCR primers having the sequences described in Sequence Numbers 1 and 2 were designed based on VEGF cDNA (GenBank accession number: X62568) and a fragment having about 340 bp was obtained by carrying out PCR. Human genome phage library (Human genomic library, Clontech Co.) was screened using this as a probe to obtain pUC18-VEGFA containing about 5.4 kb of VEGF 5′ flanking region. The pUC18-VEGFA was cleaved by KpnI/NheI, VEGF promoter region of about 2.3 kb obtained was inserted in the multi cloning site KpnI/NheI of secretory alkali phosphatase (PLAP) vector (Goto et al, Mol. Pharmacol., 49, 860-873, 1996), and thus, VEGF-PLAP vector was constructed.
The above-mentioned VEGF-PLAP vector was introduced in the U251 cell cultured in the DULBECCO-modified eagle medium (DMEM; manufactured by SIGMA Co., Ltd.) containing 10% fetal calf serum, and cultured in the presence of 1 mg/ml G418 (Merck Co.) to establish G418 resistant stable clone (U251/1-8 cell).
It was confirmed that U251/1-8 cell secreted PLAP under low oxygen (2% O2 incubator) in the same manner as in the report (Cell. Mol. Biol. Res. 40, 35-39, 1994) and was a reporter system reflecting the transcription from VEGF promoter. The screening of the compound suppressing VEGF production which was induced by low oxygen stimulation was carried out below using the clone.
In order to remove the influence of alkaline phosphates in serum, U251/1-8 cell was rinsed twice with the adequate amount of PBS (Phosphate buffered saline), diluted in the DMEM medium containing 10% of serum in which alkaline phosphates was inactivated by the treatment of 60° C. for 20 min., and dispensed in 96-well plates by 4×10^4 cells/180 μl.
After culturing at 37° C. overnight in a CO2 incubator (5% CO2), 20 μL of the above-mentioned incubation solution containing the test compound diluted with 3-fold succession was added, and then they were incubated in a low oxygen ([…]) incubator for 18 hours. With respect to the PLAP activity in the culture supernatants, 10 μl of the supernatants was added to 50 μl of 0.28 M Na2CO3—NaHCO3 buffer solution (pH 10.0, 8.0 mM MgSO4), and finally 50 μl of alkaline phosphatase substrate (LUMISTEIN, Genomescience Co.) was added. After reacting for one hour, the alkaline phosphatase activity of the PLAP was measured by detecting the chemical luminescence by a micro plate reader (Perkin-Elmer Co.).
The PLAP activity under usual oxygen was set as 0%, the PLAP activity of cell which was treated under low oxygen was set as 100%, and the concentration suppressing the PLAP activity by 50% was set as the IC50 value of PLAP.
Broadly, the IC50 is the midpoint of a concentration-inhibition curve. Take `CCC(OC)C(C)C1OC1C(O)C(C)/C=C/C=C(\C)C1OC(=O)CC(O)CCC(C)(O)C(OC(C)=O)/C=C/C1C` (stereo not drawn) [B9, (8E,12E,14E)-7-Acetoxy-3,6,17-trihydroxy-21-methoxy-6,10,12,16,20-pentamethyl-18,19-epoxytricosa-8,12,14-trien-11-olide]: the IC50 was 0.5 to 100 nM.

The assay is the same for the next values; noted with them: Homo sapiens, U-251; U251/1-8 cell, PLAP activity, low oxygen 18 hours; read-out: IC50 values of VEGF transcription-suppressing activity (range given).
With `CCC(O)C(C)C1OC1CC(C)/C=C/C=C(\C)C1OC(=O)CC(O)CCC(C)(O)C(OC(=O)N2CCOCC2)/C=C/C1C` (stereo not drawn) [B49, (8E,12E,14E)-3,6,21-Trihydroxy-6,10,12,16,20-pentamethyl-7-((morpholin-4-yl)carbonyl)oxy-18,19-epoxytricosa-8,12,14-trien-11-olide], the IC50 was 0.5 to 100 nM. Still for that read-out and setting: the same measure for `CCC(OC(C)=O)C(C)C(Br)C(CC(C)/C=C/C=C(\C)C1OC(=O)CC(O)CCC(C)(O)C(OC(C)=O)/C=C/C1C)OC(C)=O` (stereo not drawn) [B23-1, (8E,12E,14E)-7,18,21-Triacetoxy-19-bromo-3,6-dihydroxy-6,10,12,16,20-pentamethyltricosa-8,12,14-trien-11-olide]: 0.5 to 100 nM; for `CCC(O)C(C)C1OC1CC(C)/C=C/C=C(\C)C1OC(=O)CC(O)CCC(C)(O)C(OC(=O)NCCN(C)C)/C=C/C1C` (stereo not drawn) [B54, (8E,12E,14E)-7-(N-(2-Dimethylamino)ethyl)carbamoyloxy-3,6,21-trihydroxy-6,10,12,16,20-pentamethyl-18,19-epoxytricosa-8,12,14-trien-11-olide]: 0.5 to 100 nM. Still for that read-out and setting: the value for `CCC(O)C(C)C1OC1CC(C)/C=C/C=C(\C)C1OC(=O)CC(O)CCC(C)(O)C(OC(=O)N2CCN(CC)CC2)/C=C/C1C` (stereo not drawn) [B65, (8E,12E,14E)-3,6,21-Trihydroxy-6,10,12,16,20-pentamethyl-7-((4-ethylpiperazin-1-yl)carbonyl)oxy-18,19-epoxytricosa-8,12,14-trien-11-olide] was 0.5 to 100 nM. Same read-out and setting: the value for `CCC(O)C(C)C1OC1CC(C)/C=C/C=C(\C)C1OC(=O)CC(O)CCC(C)(O)C(OC(=O)N2CCNCC2)/C=C/C1C` (stereo not drawn) [B52, (8E,12E,14E)-3,6,21-Trihydroxy-6,10,12,16,20-pentamethyl-7-((piperazin-1-yl)carbonyl)oxy-18,19-epoxytricosa-8,12,14-trien-11-olide] was 0.5 to 100 nM; that for `CCC(OC(=O)CO)C(C)C1OC1CC(C)/C=C/C=C(\C)C1OC(=O)CC(O)CCC(C)(O)C(OC(C)=O)/C=C/C1C` (stereo not drawn) [B27] was 0.5 to 100 nM. As for `CCC(O)C(C)C(O)C(Br)CC(C)/C=C/C=C(\C)C1OC(=O)CC(O)CCC(C)(O)C(OC(C)=O)/C=C/C1C` (stereo not drawn) [B2-1, (8E,12E,14E)-7-Acetoxy-18-bromo-3,6,19,21-tetrahydroxy-6,10,12,16,20-pentamethyltricosa-8,12,14-trien-11-olide], the half-maximal inhibitory concentration (IC50) fell in the range of 0.5 to 100 nM. Turning to `CCC(O)C(C)C1OC1CC(C)/C=C/C=C(\C)C1OC(=O)CC(O)CCC(C)(O)C(OC(=O)NCCN2CCCCC2)/C=C/C1C` (stereo not drawn) [B63, (8E,12E,14E)-3,6,21-Trihydroxy-6,10,12,16,20-pentamethyl-7-N-(2-(piperidin-1-yl)ethyl)carbamoyloxy-18,19-epoxytricosa-8,12,14-trien-11-olide], the IC50 is 0.5 to 100 nM. Still for that read-out and setting: the same measure for `CCC(O)C(C)C1OC1CC(C)/C=C/C=C(\C)C1OC(=O)CC(O)CCC(C)(OC)C(OC(C)=O)/C=C/C1C` (stereo not drawn) [B8-5, (8E,12E,14E)-7-acetoxy-3,21-dihydroxy-6-methoxy-6,10,12,16,20-pentamethyl-18,19-epoxytricosa-8,12,14-trien-11-olide]: 0.5 to 100 nM.

`CCC(O)C(C)C1OC1CC(C)/C=C/C=C(\C)C1OC(=O)CC(O)CCC(C)(O)C(OC(=O)N2CCN(CCO)CC2)/C=C/C1C` (stereo not drawn) [B66, (8E,12E,14E)-3,6,21-Trihydroxy-6,10,12,16,20-pentamethyl-7-((4-(2-hydroxyethyl)piperazin-1-yl)carbonyl)oxy-18,19-epoxytricosa-8,12,14-trien-11-olide]: the IC50 is 0.5 to 100 nM. Same read-out and setting: the value for `CCC(O)C(C)C1OC1CC(C)/C=C/C=C(\C)C1OC(=O)CC(O)CCC(C)(O)C(OC(=O)NC)/C=C/C1C` (stereo not drawn) [B45, (8E,12E,14E)-3,6,21-Trihydroxy-6,10,12,16,20-pentamethyl-7-N-methylcarbamoyloxy-18,19-epoxytricosa-8,12,14-trien-11-olide] was 0.5 to 100 nM; that for `CCC(OC(C)=O)C(C)C(OC(C)=O)C(Cl)CC(C)/C=C/C=C(\C)C1OC(=O)CC(O)CCC(C)(O)C(OC(C)=O)/C=C/C1C` (stereo not drawn) [B21-4, (8E,12E,14E)-7,19,21-triacetoxy-18-chloro-3,6-dihydroxy-6,10,12,16,20-pentamethyltricosa-8,12,14-trien-11-olide] was 0.5 to 100 nM; that for `CCC(O)C(C)C1OC1CC(C)/C=C/C=C(\C)C1OC(=O)CC(O)/C=C/C(C)(O)C(OC(C)=O)/C=C/C1C` (stereo not drawn) [11107H] was 1 to 100 nM. Regarding `CC/C(=N\OCc1ccccc1)C(C)C1OC1CC(C)/C=C/C=C(\C)C1OC(=O)CC(O)CCC(C)(O)C(OC(C)=O)/C=C/C1C` (stereo not drawn) [B75, (8E,12E,14E)-7-Acetoxy-21-benzyloxyimino-3,6-dihydroxy-6,10,12,16,20-pentamethyl-18,19-epoxytricosa-8,12,14-trien-11-olide], the IC50 is 0.5 to 100 nM. Still for that read-out and setting: the value for `CCCC(=O)OC1/C=C/C(C)C(/C(C)=C/C=C/C(C)CC2OC2C(C)C(O)CC)OC(=O)CC(O)CCC1(C)O` (stereo not drawn) [B42] was 0.5 to 100 nM; that for `CCC(O)C(C)C1OC1CC(C)/C=C/C=C(\C)C1OC(=O)CC(O)CCC(C)(O)C(OC(=O)CN2CCOCC2)/C=C/C1C` (stereo not drawn) [B40, (8E,12E,14E)-3,6,21-Trihydroxy-6,10,12,16,20-pentamethyl-7-(morpholin-4-yl)acetoxy-18,19-epoxytricosa-8,12,14-trien-11-olide] was 0.5 to 100 nM; that for `CCC(O)C(C)C1OC1CC(C)/C=C/C=C(\C)C1OC(=O)/C=C\CCC(C)(O)C(OC(C)=O)/C=C/C1C` (stereo not drawn) [B43-2, (2Z,8E,12E,14E)-7-acetoxy-6,21-dihydroxy-6,10,12,16,20-pentamethyl-18,19-epoxytricosa-2,8,12,14-tetraen-11-olide] was 0.5 to 100 nM. For the compound `CCC(OC)C(C)C1OC1CC(C)/C=C/C=C(\C)C1OC(=O)CC(O)CCC(C)(O)C(OC(C)=O)/C=C/C1C` (stereo not drawn) [B8-1, (8E,12E,14E)-7-Acetoxy-3,6-dihydroxy-21-methoxy-6,10,12,16,20-pentamethyl-18,19-epoxytricosa-8,12,14-trien-11-olide], the IC50 was 0.5 to 100 nM. The same measure, in the same setting: the same measure for `CCC(O)C(C)C1OC1CC(C)/C=C/C=C(\C)C1OC(=O)CC(O)CCC(C)(O)C(OC(=O)NCc2ccccn2)/C=C/C1C` (stereo not drawn) [B56, (8E,12E,14E)-3,6,21-Trihydroxy-6,10,12,16,20-pentamethyl-7-N-(2-pyridylmethyl)carbamoyloxy-18,19-epoxytricosa-8,12,14-trien-11-olide]: 0.5 to 100 nM; for `CCC(O)C(C)C(I)C(O)CC(C)/C=C/C=C(\C)C1OC(=O)CC(O)CCC(C)(O)C(OC(C)=O)/C=C/C1C` (stereo not drawn) [B3-1, (8E,12E,14E)-7-Acetoxy-3,6,18,21-tetrahydroxy-19-iodo-6,10,12,16,20-pentamethyltricosa-8,12,14-trien-11-olide]: 0.5 to 100 nM. On the same count and under the same terms, the value for `CCC(OC)C(C)C1OC1CC(C)/C=C/C=C(\C)C1OC(=O)CC(O)CCC(C)(OC)C(OC(C)=O)/C=C/C1C` (stereo not drawn) [B8-2, (8E,12E,14E)-7-acetoxy-3-hydroxy-6,21-dimethoxy-6,10,12,16,20-pentamethyl-18,19-epoxytricosa-8,12,14-trien-11-olide] was 0.5 to 100 nM; that for `CCC(OC(=O)N1CCN(C)CC1)C(C)C1OC1CC(C)/C=C/C=C(\C)C1OC(=O)CC(O)CCC(C)(O)C(OC(C)=O)/C=C/C1C` (stereo not drawn) [B36-2, (8E,12E,14E)-7-acetoxy-21-((4-methylpiperazin-1-yl)carbonyl)oxy-3,6-dihydroxy-6,10,12,16,20-pentamethyl-18,19-epoxytricosa-8,12,14-trien-11-olide] was 0.5 to 100 nM.

The assay is the same for the next values; noted with them: Homo sapiens, U-251; U251/1-8 cell, PLAP activity, low oxygen 18 hours; read-out: VEGF transcription suppressing activity (IC50: nM).
For `CCC(O)C(C)C1OC1CC(C)/C=C/C=C(\C)C1OC(=O)CC(O)/C=C/C(C)(O)C(OC(C)=O)/C=C/C1C` (stereo not drawn) [11107H], the IC50 was 3.1 nM.
